# Results published in ChEMBL document CHEMBL1201862, “PubChem BioAssay data set” (2004).
#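 Method: 48-hour compound exposure of cells in 96-well plates, five concentrations, linear interpolation of endpoints. At the GI50, growth is halved.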 Activity calls are given as the source filed them. Cut-off read from the data, not from the text of the source: active = GI50 up to about 1.1 µM and inactive = higher.
# Experiments:
# Test in all cases: growth of human tumour cells (NCI), 48 h
# A549 = tested on: A549
# OVCAR-5 = tested on: OVCAR-5
# SF-539 = tested on: SF-539
# CCRF-CEM = tested on: CCRF-CEM
# SK-OV-3 = tested on: SK-OV-3
# COLO 205 = tested on: COLO 205
# TK-10 = tested on: TK-10
# NCI/ADR-RES = tested on: NCI/ADR-RES
# MDA-N = tested on: MDA-N
# HOP-92 = tested on: HOP-92
# HCT-15 = tested on: HCT-15
# RXF 393 = tested on: RXF 393
# NCI-H522 = tested on: NCI-H522
# ACHN = tested on: ACHN
# OVCAR-4 = tested on: OVCAR-4
# UO-31 = tested on: UO-31
# M14 = tested on: M14
# BT-549 = tested on: BT-549
# RPMI-8226 = tested on: RPMI-8226
SMILES,GI50 (A549),GI50 (OVCAR-5),GI50 (SF-539),GI50 (CCRF-CEM),GI50 (SK-OV-3),GI50 (COLO 205),GI50 (TK-10),GI50 (NCI/ADR-RES),GI50 (MDA-N),GI50 (HOP-92),GI50 (HCT-15),GI50 (RXF 393),GI50 (NCI-H522),GI50 (ACHN),GI50 (OVCAR-4),GI50 (UO-31),GI50 (M14),GI50 (BT-549),GI50 (RPMI-8226)
N#CC1=C2SCCN2C(=O)C(C#N)C12CCCCC2 (centres undefined),> 100 µM (inactive),> 100 µM (inactive),> 100 µM (inactive),> 100 µM (inactive),> 100 µM (inactive),> 100 µM (inactive),> 100 µM (inactive),> 100 µM (inactive),> 100 µM (inactive),> 100 µM (inactive),> 100 µM,59.4 µM (inactive),> 100 µM (inactive),> 100 µM (inactive),> 100 µM (inactive),> 100 µM (inactive),> 100 µM (inactive),> 100 µM (inactive),> 100 µM (inactive)
NS(=O)(=O)c1ccc(NNc2c3ccccc3nc3ccccc23)cc1,15.3 µM (inactive),12.8 µM (inactive),12.2 µM (inactive),6.28 µM (inactive),14.8 µM (inactive),7.29 µM (inactive),18.8 µM (inactive),14 µM (inactive),12.9 µM (inactive),14.1 µM (inactive),10 µM,13.2 µM (inactive),11.4 µM (inactive),11.4 µM (inactive),10.5 µM (inactive),10.9 µM (inactive),11.2 µM (inactive),10.3 µM (inactive),9.4 µM (inactive)
O=C1C2=C(CC3=C(C2)CS(=O)(=O)C3)C(=O)C2=C1CC1=C(C2)CS(=O)(=O)C1,> 90.2 µM (inactive),43.4 µM (inactive),36.3 µM (inactive),12.8 µM (inactive),38.5 µM (inactive),13 µM (inactive),48.9 µM (inactive),16.3 µM (inactive),10.3 µM (inactive),> 46.7 µM (inactive),34.1 µM,27.3 µM (inactive),11.3 µM (inactive),36.3 µM (inactive),10.9 µM (inactive),38.1 µM (inactive),> 37.7 µM (inactive),18.5 µM (inactive),28.6 µM (inactive)
O=C(c1ccc(Cl)cc1)N(Cc1cccnc1)C(=S)N(Cc1cccnc1)C(=O)c1ccc(Cl)cc1,99.5 µM (inactive),36.7 µM (inactive),23 µM (inactive),50 µM (inactive),> 100 µM (inactive),20.5 µM (inactive),53 µM (inactive),31.2 µM (inactive),22.2 µM (inactive),34 µM (inactive),33.9 µM,43.6 µM (inactive),24.2 µM (inactive),36.1 µM (inactive),23.6 µM (inactive),34.2 µM (inactive),22.7 µM (inactive),23.7 µM (inactive),13.2 µM (inactive)
COc1ccc2c(c1)NC1(CCN(CCCC(=O)c3ccc(F)cc3)CC1)N=N2,36.4 µM (inactive),23.5 µM (inactive),19.8 µM (inactive),20 µM (inactive),33.4 µM (inactive),14.5 µM (inactive),20.7 µM (inactive),24.4 µM (inactive),17.7 µM (inactive),29.9 µM (inactive),20.8 µM,16.6 µM (inactive),16.9 µM (inactive),27.5 µM (inactive),27.4 µM (inactive),18 µM (inactive),13.7 µM (inactive),26.4 µM (inactive),16.6 µM (inactive)
COC(=O)/C=C(\S/C=C(/c1ccccc1)N1CCn2c(C(=O)c3ccccc3)c(C(=O)OC)c(C(=O)OC)c21)C(=O)OC,> 10 µM (inactive),9.95 µM (inactive),2.29 µM (inactive),0.733 µM (active),> 10 µM (inactive),1.99 µM (inactive),2.63 µM (inactive),3.52 µM (inactive),> 10 µM (inactive),1.23 µM (inactive),2.6 µM,2.67 µM (inactive),0.434 µM (active),3.34 µM (inactive),2.81 µM (inactive),,2.4 µM (inactive),3.83 µM (inactive),2.43 µM (inactive)
COc1ccc(OCC(=N/NC(=O)c2ccncc2)/N=C/c2ccncc2)cc1,> 100 µM (inactive),> 100 µM (inactive),> 100 µM (inactive),> 100 µM (inactive),94.4 µM (inactive),74 µM (inactive),> 100 µM (inactive),77.6 µM (inactive),17.6 µM (inactive),29.2 µM (inactive),51.5 µM,36.3 µM (inactive),32.2 µM (inactive),> 100 µM (inactive),> 100 µM (inactive),,82 µM (inactive),> 100 µM (inactive),40.7 µM (inactive)
COc1cc(OC)c2c(=O)c3cccc(C)c3n(C)c2c1,83.2 µM (inactive),> 100 µM (inactive),68.5 µM (inactive),36.3 µM (inactive),> 100 µM (inactive),67 µM (inactive),> 100 µM (inactive),64.1 µM (inactive),16.6 µM (inactive),83.6 µM (inactive),> 100 µM,> 100 µM (inactive),> 100 µM (inactive),51.3 µM (inactive),64 µM (inactive),,44 µM (inactive),> 100 µM (inactive),17.9 µM (inactive)
